The target of one assay is casein kinase II (CKII). Description: Inhibition of endogenous CKII kinase activity. It is filed as cell-based, human. The following applies: OVCAR3 and OVCAR8 cells. As to the method:
(§1) Western Blotting: Western blotting was performed using primary antibodies detailed in Table S5 (Supporting Information). Western blotting grayscale analyses were performed using ImageJ (version 2.0.0; NIH, Bethesda, MD, USA). β-Catenin expression was quantified by determining the gray level of each band using Image J and normalized using α-tubulin.

The subject of assay [1] is MYH9 phosphorylation at Ser1943. Description: Western blotting, phosphorylation of MYH9 at Ser1943 under CX-4945, OVCAR3 and OVCAR8. The format is cell-based, human. The following applies: CX-4945 6 μM, OVCAR3 and OVCAR8 cells with SPC25 overexpression or silencing. As to the method: as §1
Figure S6. A) Exogenous IP assays performed to assess Ser/Thr phosphorylation status of MYH9-Myc in HEK293FT cells with or without SPC25-Flag expression. B) Quantification of nuclear or cellular fluorescence of reexpressed GFP-MYH9-WT with NLS2-2A and NLS2-3A mutants in MYH9-silenced OVCAR3 cells with or without SPC25 overexpression. C) qRT-PCR of MYH9 in OVCAR8 and SKOV3 cells with exogenous expression of MYH9 mutant variants. D) qRT-PCR of MYH9 in MYH9-silenced OVCAR3 and OVCAR8 cells with reexpression of MYH9-WT or MYH9-S1943A. E) qRT-PCR of CTNNB1 in MYH9-silenced OVCAR8 cells with reexpression of MYH9-WT or MYH9-S1943A under SPC25 silencing (left). TOP/FOP Flash analysis in MYH9-silenced OVCAR8 cells with reexpression of MYH9-WT or MYH9-S1943A under SPC25 silencing (right). F) Endogenous phosphorylation status of MYH9 at Ser1943 in OVCAR3 and OVCAR8 cells under escalating doses of CX-4945 examined through Western blotting. […]

The test system of another assay is COV644 cells. Nature of the assay: Tumor sphere formation, XAV939, SPC25-overexpressing COV644. It is filed as cell-based, human. The settings on record: for Log(negative ratio, 2) / negative ratio / number of negative wells: XAV939 100uM, 24 wells.
The test system of the next assay is OVCAR3 cells. Nature of the assay: Tumor sphere formation, XAV939, SPC25-overexpressing OVCAR3. The format is cell-based, human. The following applies: for negative ratio / number of negative wells: XAV939 100uM, 24 wells.
For the next assay, the system named is patients with EOC. The arrangement: method as in 2 sources, ref 59 = [59]; PMID 22204724; doi:10.1056/NEJMoa1104390; 59 R. A. Burger , M. F. Brady , M. A. Bookman , G. F. Fleming , B. J. Monk , H. Huang , R. S. Mannel , H. D. Homesley , J. Fowler , B. E. Greer , M. Boente , M. J. Birrer , S. X. Liang , G. G. Oncolog ||| ref 61, 62, 63 = [61]; PMID 25481791; doi:10.1016/S1470-2045(14)71135-0; 61 A. M. Oza , D. Cibula , A. O. Benzaquen , C. Poole , R. H. Mathijssen , G. S. Sonke , N. Colombo , J. Spacek , P. Vuylsteke , H. Hirte , S. Mahner , M. Plante , B. Schmalfeldt , H. Mackay , J. Rowb || [62]; PMID 34485111; doi:10.3389/fonc.2021.638295; 62 N. Ren , L. Zhang , J. Yu , S. Guan , X. Dai , L. Sun , M. Ying , Front. Oncol. 2021 , 11 , 638295 . 34485111 10.3389/fonc.2021.638295 PMC8414886 || [63]; PMID 27663600; doi:10.1158/1078-0432.CCR-16-1546; 63 J. M. Lee , C. J. Peer , M. Yu , L. Amable , N. Gordon , C. M. Annunziata , N. Houston , A. K. Goey , T. M. Sissung , B. Parker , L. Minasian , V. L. Chiou , R. F. Murphy , B. C. Widemann , W. D. F. The settings on record: cited from earlier work; for PFS or OS during chemotherapy: PARP inhibitors during chemotherapy; for maintenance treatment benefit for patient survival: PARP inhibitors, maintenance treatment of EOC.

`O=C(O)c1ccc2c(c1)nc(Nc1cccc(Cl)c1)c1ccncc12` [CX-4945]: at casein kinase II (CKII), the “kinase activity of endogenous CKII” value is recorded as “completely inhibited”. In assay [1], the “SPC25-mediated promotion of MYH9 phosphorylation at Ser1943” value was “persisted”.

Consider `Oc1nc(-c2ccc(C(F)(F)F)cc2)nc2c1CSCC2` [XAV939], for which the “enhanced stemness attributable to SPC25 overexpression (tumor sphere formation)” value in the assay with COV644 cells (SPC25-overexpressing COV644) and in the assay on OVCAR3 cells (SPC25-overexpressing OVCAR3) was “effectively mitigated the enhanced stemness” in each case. In addition, the “Log(negative ratio, 2)” value with COV644 cells (COV644-SPC25, 50 cells) is given as 0; in the assay with COV644 cells (COV644-SPC25, 100 cells), 0; with COV644 cells (COV644-Vector, 50 cells), 0; in the assay with COV644 cells (COV644-Vector, 100 cells) it was 0; in the assay with COV644 cells (COV644-Vector, 200 cells) it was 0. The negative ratio was determined as 1 with COV644 cells (COV644-SPC25, 50 cells); 1 in the assay on COV644 cells (COV644-SPC25, 100 cells); 1 with COV644 cells (COV644-Vector, 50 cells); 1 in the assay with COV644 cells (COV644-Vector, 100 cells); 1 with COV644 cells (COV644-Vector, 200 cells); 1 in the assay on OVCAR3 cells (OVCAR3-SPC25, 50 cells). Besides, the negative ratio stood at 1 in the assay on OVCAR3 cells (OVCAR3-SPC25, 100 cells); 0.9167 with OVCAR3 cells (OVCAR3-SPC25, 200 cells); 0.875 in the assay with OVCAR3 cells (OVCAR3-SPC25, 400 cells); 0.8333 in the assay with OVCAR3 cells (OVCAR3-SPC25, 800 cells); 1 in the assay with OVCAR3 cells (OVCAR3-Vector, 50 cells); 1 with OVCAR3 cells (OVCAR3-Vector, 100 cells). Besides, the negative ratio in the assay on OVCAR3 cells (OVCAR3-Vector, 200 cells) is given as 0.9583; with OVCAR3 cells (OVCAR3-Vector, 400 cells), 0.9167; with OVCAR3 cells (OVCAR3-Vector, 800 cells), 0.8333. The “number of negative wells” value is listed as 24 in the assay with COV644 cells (COV644-SPC25, 50 cells); 24 in the assay on COV644 cells (COV644-SPC25, 100 cells); 23 with COV644 cells (COV644-SPC25, 200 cells); 23 with COV644 cells (COV644-SPC25, 400 cells); 21 in the assay with COV644 cells (COV644-SPC25, 800 cells); 24 in the assay with COV644 cells (COV644-Vector, 50 cells). The “number of negative wells” value in the assay with COV644 cells (COV644-Vector, 100 cells) is given as 24; with COV644 cells (COV644-Vector, 200 cells) it was 24; in the assay on COV644 cells (COV644-Vector, 400 cells), 23; in the assay with COV644 cells (COV644-Vector, 800 cells) it was 22; in the assay with OVCAR3 cells (OVCAR3-SPC25, 50 cells), 24; with OVCAR3 cells (OVCAR3-SPC25, 100 cells) it was 24. Moreover, the “number of negative wells” value with OVCAR3 cells (OVCAR3-SPC25, 200 cells) worked out at 22; with OVCAR3 cells (OVCAR3-SPC25, 400 cells), 21; in the assay with OVCAR3 cells (OVCAR3-SPC25, 800 cells), 20; with OVCAR3 cells (OVCAR3-Vector, 50 cells) it was 24; in the assay with OVCAR3 cells (OVCAR3-Vector, 100 cells) it was 24; with OVCAR3 cells (OVCAR3-Vector, 200 cells) it was 23. The “number of negative wells” value with OVCAR3 cells (OVCAR3-Vector, 400 cells) is listed as 22; with OVCAR3 cells (OVCAR3-Vector, 800 cells), 20.

As for `NC(=O)c1cccc2cn(-c3ccc([C@@H]4CCCNC4)cc3)nc12` [niraparib], in the assay on patients with EOC, the “PFS or OS during chemotherapy” value is on record as “marginal PFS or OS enhancements” and the “maintenance treatment benefit for patient survival” value is recorded as “marked benefits”.

`O=C(c1cc(Cc2n[nH]c(=O)c3ccccc23)ccc1F)N1CCN(C(=O)C2CC2)CC1` [olaparib]: in the assay with patients with EOC, the “PFS or OS during chemotherapy” value was “marginal PFS or OS enhancements” and the “maintenance treatment benefit for patient survival” value was “marked benefits”.

Take “bevacizumab: biological agent combined with platinum-based regimens”: in the assay with patients with EOC (added to platinum-based regimens, recurrent patients with EOC, compared with controls), the PFS prolongation was 3–4 months.

These data come from paper PMC11653702, “Targeting the SPC25/RIOK1/MYH9 Axis to Overcome Tumor Stemness and Platinum Resistance in Epithelial Ovarian Cancer” (Advanced Science, 2024).
